# According to US9353067B2, “Heterocyclic compounds and uses thereof in the treatment of sexual disorders” (ATIR Holding S.A., priority 2011, dated 2016):
# Columns and labels:
# [1] = target: Serotonin 5-HT1A receptor (Homo sapiens (Human), UniProt P08908); experiment: Competitive binding, 8-OH-DPAT radioligand
# Protocol: (§1) R-55 (which comprises a 3-hydroxyphenyl moiety) and the structurally related compounds N-108 (2-{[4-(2-ethoxyphenyl)piperazin-1-yl]methyl}quinazolin-4(3H)-one) and B-39 (7-chloro-2-((5,6-dihydro-4-(2-methoxyphenyl)pyridin-1(2H)-yl)methyl)quinazolin-4(3H)-one) were assayed for competitive binding to a variety of receptors, including D4.4 type dopamine receptor, in order to assess their specificity for D4.4 dopamine receptors.
# (§2) The receptors were expressed as human recombinant proteins in CHO cells, except for adrenergic α1 and α2 receptors which were expressed in Wistar rat brain and cerebral cortex cells, respectively, and melanocortin MC4 receptor which was expressed in human recombinant HEK-293 cells. Binding was determined using the following radioligands in the presence of various concentrations of the tested compound:
# 1.5 nM 8-OH-DPAT for serotonin 5-HT1A receptor, and
# (§3) The binding assays were performed in accordance with procedures described in the literature (Greengrass & Bremner, 1979; Boyajian & Leslie, 1987; Broadhurst, 1988; Lewis, 2001; Sutton, 1995; Dearry, 1990; Zhou, 1990; Grandy, 1989; Hayes, 1992; Sokoloff, 1990; Van Tol, 1991; Van Tol 1992; Sunahara, 1991; Weinshank, 1991; Schioth, 1996; Schioth 1997; Martin & Humphrey, 1994; May, 2003; Wolf & Schutz, 1997).
# [2] = target: Melanocortin MC4 receptor (Homo sapiens (Human), UniProt P32245); experiment: Competitive binding, NDP-α-MSH radioligand
# Protocol: as §1, §2
# 0.02 nM NDP-α-MSH for melanocortin MC4 receptor,
# as §3
# [3] = test system: Adrenergic α1 receptor; experiment: Competitive binding, prazosin radioligand; parameters: species or system Wistar rat
# Protocol: as §1, §2
# 0.25 nM prazosin for adrenergic α1 receptor,
# as §3
# [4] = target: Dopamine D5 receptor (Homo sapiens (Human), UniProt P21918); experiment: Competitive binding, SCH-23390 radioligand
# Protocol: as §1, §2
# (§4) 1.4 nM and 2 nM SCH-23390, respectively, for dopamine D1 and D5 receptors,
# as §3
# [5] = target: Dopamine D1 receptor (Homo sapiens (Human), UniProt P21728); experiment: Competitive binding, SCH-23390 radioligand
# Protocol: as §1, §2, §4, §3
# [6] = test system: Adrenergic α2 receptor; experiment: Competitive binding, rauwolscine radioligand; parameters: species or system Wistar rat
# Protocol: as §1, §2
# 0.7 nM rauwolscine for adrenergic α2 receptor,
# as §3
# [7] = target: PARP-1 (Homo sapiens (Human), UniProt P09874); experiment: Universal Chemiluminescent PARP Assay; format: biochemical
# Protocol: In addition, R-55 and its hydrochloride salt were assayed for PARP (poly(ADP-ribose)polymerase) inhibitory activity, as some quinazolinone derivatives, particularly derivatives comprising quinazolinone linked via a three-carbon moiety to substituted pyridinyl and piperazinyl moieties, have been identified as potent PARP inhibitors [U.S. Patent Application Publication No. 2004/0077667; Iwashita et al., FEBS Lett 579:1389-1393(2005); Hattori et al., J Med Chem 47:4151-4154(2004)]. PARP plays a natural role in repair of DNA damage, and inhibition of PARP may lead to undesirable side effects in any treatment of a sexual disorder.
# Inhibition of PARP-1 was assayed using a Universal Chemiluminescent PARP Assay (Trevigen, Inc.).
# The tested compounds were diluted from 2.1 mg of powder in 25 μl of DMSO. The tested compounds were diluted to 100 μM in 1% DMSO/99% ethanol. 3-Aminobenzamide (3-AB), a commercially available weak PARP inhibitor, was used as a positive control. The activity of PARP was quantified as relative light units (RLU). Each of the tested compounds was assayed twice.
# In Assay 1, the 100 μM stock solution was diluted to 40 μM in 1×PARP buffer. The compounds were then serially diluted down to 0.4 μM. Each tested compound was
# further diluted 1:4 during the assay, so the final concentrations ranged from 10 μM to 0.1 μM.
# In Assay 2, the 100 μM stock was added to 1×PARP buffer to prepare samples with concentrations ranging from 40 μM to 2 μM. A 10 μM stock solution was added to 1×PARP buffer to prepare samples with concentrations of 1 μM and 0.4 μM. Each tested compound was further diluted 1:4 during the assay, so the final concentrations ranged from 10 μM to 0.1 μM.
# PARP-1, sequence (P09874 whole entry): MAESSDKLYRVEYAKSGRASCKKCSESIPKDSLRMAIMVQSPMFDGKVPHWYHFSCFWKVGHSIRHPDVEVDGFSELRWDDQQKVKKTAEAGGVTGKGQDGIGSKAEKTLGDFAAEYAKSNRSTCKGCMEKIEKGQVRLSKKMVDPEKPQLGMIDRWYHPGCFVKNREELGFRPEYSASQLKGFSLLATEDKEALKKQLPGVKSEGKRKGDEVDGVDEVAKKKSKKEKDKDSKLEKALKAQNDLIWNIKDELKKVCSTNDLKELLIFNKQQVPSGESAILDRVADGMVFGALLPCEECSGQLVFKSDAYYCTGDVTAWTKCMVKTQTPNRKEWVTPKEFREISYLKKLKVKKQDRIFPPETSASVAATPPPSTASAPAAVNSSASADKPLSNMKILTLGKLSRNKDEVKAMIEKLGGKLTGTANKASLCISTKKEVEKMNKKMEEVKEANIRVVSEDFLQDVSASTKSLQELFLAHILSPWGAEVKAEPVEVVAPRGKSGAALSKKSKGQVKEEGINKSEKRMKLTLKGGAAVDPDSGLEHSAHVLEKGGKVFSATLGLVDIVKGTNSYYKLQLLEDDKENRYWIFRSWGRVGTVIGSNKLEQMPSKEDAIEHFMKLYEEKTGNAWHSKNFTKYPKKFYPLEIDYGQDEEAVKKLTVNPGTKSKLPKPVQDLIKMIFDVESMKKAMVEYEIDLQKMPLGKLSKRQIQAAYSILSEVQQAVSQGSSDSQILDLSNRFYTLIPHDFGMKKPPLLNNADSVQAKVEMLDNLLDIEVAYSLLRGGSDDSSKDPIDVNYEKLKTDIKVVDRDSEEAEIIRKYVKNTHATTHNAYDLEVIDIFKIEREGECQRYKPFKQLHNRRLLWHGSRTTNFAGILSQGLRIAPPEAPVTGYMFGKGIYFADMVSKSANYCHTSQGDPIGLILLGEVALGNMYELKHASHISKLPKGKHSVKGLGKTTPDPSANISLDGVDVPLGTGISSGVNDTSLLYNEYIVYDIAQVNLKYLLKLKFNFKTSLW
# Dopamine D1 receptor, sequence (P21728 whole entry): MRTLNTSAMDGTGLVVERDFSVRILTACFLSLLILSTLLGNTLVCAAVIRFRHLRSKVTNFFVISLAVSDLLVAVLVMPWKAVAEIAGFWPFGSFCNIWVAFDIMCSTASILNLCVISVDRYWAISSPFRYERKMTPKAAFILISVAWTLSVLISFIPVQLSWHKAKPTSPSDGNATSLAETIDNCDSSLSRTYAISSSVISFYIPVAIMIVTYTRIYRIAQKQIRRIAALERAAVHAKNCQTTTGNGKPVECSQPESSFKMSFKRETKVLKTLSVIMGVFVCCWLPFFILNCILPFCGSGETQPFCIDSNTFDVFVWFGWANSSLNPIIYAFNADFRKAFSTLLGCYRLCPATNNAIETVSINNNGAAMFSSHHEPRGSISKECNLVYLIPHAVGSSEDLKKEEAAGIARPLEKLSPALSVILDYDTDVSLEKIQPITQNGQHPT
# Melanocortin MC4 receptor, sequence (P32245 whole entry): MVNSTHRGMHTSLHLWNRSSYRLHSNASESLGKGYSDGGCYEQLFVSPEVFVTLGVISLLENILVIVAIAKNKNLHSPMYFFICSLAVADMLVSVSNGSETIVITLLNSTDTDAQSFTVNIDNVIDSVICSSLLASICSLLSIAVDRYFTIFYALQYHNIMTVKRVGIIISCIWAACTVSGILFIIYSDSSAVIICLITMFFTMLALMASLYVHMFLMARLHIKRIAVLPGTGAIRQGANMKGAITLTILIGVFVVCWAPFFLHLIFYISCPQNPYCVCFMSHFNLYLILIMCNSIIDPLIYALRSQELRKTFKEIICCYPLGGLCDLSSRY
# Serotonin 5-HT1A receptor, sequence (P08908 whole entry): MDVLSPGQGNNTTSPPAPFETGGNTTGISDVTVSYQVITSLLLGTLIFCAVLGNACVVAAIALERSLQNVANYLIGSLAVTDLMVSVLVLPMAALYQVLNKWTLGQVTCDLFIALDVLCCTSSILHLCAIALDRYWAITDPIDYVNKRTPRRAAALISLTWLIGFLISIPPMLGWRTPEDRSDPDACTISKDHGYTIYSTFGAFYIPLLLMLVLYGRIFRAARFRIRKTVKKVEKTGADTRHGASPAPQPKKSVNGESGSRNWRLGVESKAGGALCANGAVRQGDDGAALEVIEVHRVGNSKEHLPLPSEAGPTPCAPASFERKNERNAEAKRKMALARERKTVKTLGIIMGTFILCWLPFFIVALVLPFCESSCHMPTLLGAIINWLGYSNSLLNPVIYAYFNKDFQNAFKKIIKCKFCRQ
# Dopamine D5 receptor, sequence (P21918 whole entry): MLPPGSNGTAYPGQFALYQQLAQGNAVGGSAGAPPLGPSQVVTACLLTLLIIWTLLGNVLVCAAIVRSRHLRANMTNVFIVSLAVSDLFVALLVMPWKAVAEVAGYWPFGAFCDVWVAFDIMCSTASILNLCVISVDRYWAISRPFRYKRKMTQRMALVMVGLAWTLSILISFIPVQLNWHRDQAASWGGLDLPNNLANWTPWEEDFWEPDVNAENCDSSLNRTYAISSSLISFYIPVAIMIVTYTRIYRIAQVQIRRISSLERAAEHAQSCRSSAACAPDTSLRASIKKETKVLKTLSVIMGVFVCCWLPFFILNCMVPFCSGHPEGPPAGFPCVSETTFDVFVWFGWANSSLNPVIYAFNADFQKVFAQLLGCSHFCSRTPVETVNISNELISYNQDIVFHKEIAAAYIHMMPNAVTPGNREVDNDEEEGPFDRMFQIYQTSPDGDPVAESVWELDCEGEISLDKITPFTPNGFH
smiles,measurement,setting,value
"O=c1[nH]c(CN2CCN(c3cccc(O)c3)CC2)nc2ccccc12 [Compound R-55, 2-((4-(3-hydroxyphenyl)piperazin-1-yl)methyl)quinazolin-4-one]",Competitive binding (%) at 5 μM of tested compound,[1],7%
same,Competitive binding (%) at 5 μM of tested compound,[2],3%
same,Competitive binding (%) at 5 μM of tested compound,[3],10%
same,Competitive binding (%) at 5 μM of tested compound,[4],0%
same,Competitive binding (%) at 5 μM of tested compound,[5],−12%
same,Competitive binding (%) at 5 μM of tested compound,[6],39%
same,inhibition at 5 µM,"[7]; 5 μM, average results from two assays",19%
same,inhibition at 10 µM,"[7]; 10 μM, average results from two assays",21%
same,inhibition of PARP (in words),"[7]; Assay 1 and Assay 2, 0.1 μM to 10 μM",did not exhibit any significant inhibition of PARP
